# Experimental data: patent US12064420B2, “Tie-2 activators targeting the Schlemm's canal” (EyePoint Pharmaceuticals, Inc., priority 2019, dated 2024)
# What was measured:
# [1] = system: patients with moderate to severe non-proliferative diabetic retinopathy; assay: Phase 2 48-week trial: IOP after subcutaneous Compound 1 QD or BID, non-proliferative diabetic retinopathy; assay type: in vivo, human; details: for mean reduction in IOP compared to placebo: MMRM ANCOVA; for Week 12 IOP change from BL, mean (SD) / Week 12 IOP, mean (SD) / Week 36 IOP change from BL, mean (SD) / Week 36 IOP, mean (SD) / Week 48 IOP change from BL, mean (SD) / Week 48 IOP, mean (SD) / Week 24 IOP change from BL, mean (SD) / Week 24 IOP, mean (SD): averaged over both eyes; for Week 24 IOP change from BL, mean (SD) / Week 24 IOP, mean (SD): measured predose
# Description: Eligible subjects were aged 18 to 80 years with moderate to severe NPDR. The major inclusion criteria for the qualified eyes included Early Treatment Diabetic Retinopathy Study (ETDRS) Severity Score≥43 and ≤53, no evidence of central involved diabetic macular edema (DME) and ETDRS≥70 letters using the ETDRS visual acuity charts. Study eye ocular exclusion criteria included uncontrolled glaucoma defined as IOP≥30 mm Hg on maximum IOP reduction therapy. Subjects were randomized 1:1:1 to either Compound 1, 15 mg once daily (QD), Compound 1, 15 mg twice daily (BID), or placebo BID treatment groups. Subjects self-administered the masked study medication (Compound 1 or placebo) supplied as sterile pre-filled single-use syringes. Subjects visited the clinical site monthly during the 48-week treatment period. A battery of comprehensive ophthalmic evaluations including IOP assessments were conducted every 12-weeks with either applanation tonometry or Tono-Pen® and the methodology was consistent throughout the study. On Day 1 and Week 24, IOP was measured prior to dosing. IOP data were analyzed using a mixed-model repeated measures ANCOVA, with visit as the repeated measure within subject. The model included change from baseline as the dependent variable. The p-value from the model was adjusted by baseline IOP. 167 patients with moderate to severe non-proliferative diabetic retinopathy (NPDR) without diabetic macular edema (DME) and a visual acuity of 20/40 or better were enrolled in a 48-week study of the effect of Compound 1 (sodium salt) in the treatment of NPDR. The IOP was measured at baseline, and at weeks 12, 24, 36, and 48. The trial consisted of three study arms: 1) patients receiving 15 mg of Compound 1 subcutaneously BID; 2) patients receiving placebo subcutaneously QD, and 15 mg of Compound 1 subcutaneously QD; and 3) patients receiving a placebo subcutaneously BID.
# [2] = system: Tie-2; assay: Tie-2 phosphorylation in Schlemm's canal, whole mount immunofluorescence; assay type: in vivo, mouse; details: 1 hour after single topical ocular administration of 4% eye drops
# Method: VE-PTP expression was assessed in the endothelium of SC in VE-PTP knock-in reporter mice expressing a nuclear-localizing β-galactosidase from the endogenous VE-PTP promoter (VE-PTP+/mut). C57BL/6JRj mice were also used in the experiments as control animals. Mice were anaesthetized using ketamine (125 mg/kg) and xylazine (12.5 mg/kg). 10 μL of Compound 1 eye drop solution (4% Compound 1) or vehicle was applied to each eye. Mice were euthanized 1 hour following dosing, and the eyes were processed for immunofluorescence analysis to detect Tie-2 phosphorylation. […]
# To evaluate VE-PTP mediated signaling, tyrosine phosphorylation and activation of Tie-2 in SC following VE-PTP inhibition was assessed one hour following a single topical ocular administration of Compound 1. […]
structure (smiles),measurement,setting,value
"COC(=O)N[C@@H](Cc1ccccc1)C(=O)N[C@@H](Cc1ccc(NS(=O)(=O)O)cc1)c1csc(-c2cccs2)n1 [Compound 1, 4-{(S)-2-[(S)-2-(Methoxycarbonylamino)-3-phenylpropanamido]-2-[2-(thiophen-2-yl)thiazol-4-yl]ethyl}phenylsulfamic acid]",mean reduction in IOP compared to placebo,[1]; 15 mg SC BID,1.15 mmHg
same,"Week 12 IOP change from BL, mean (SD)",[1]; 15 mg SC BID,−0.91 (3.20) mmHg
same,"Week 12 IOP, mean (SD)",[1]; 15 mg SC BID,14.6 (2.93) mmHg
same,"Week 36 IOP change from BL, mean (SD)",[1]; 15 mg SC BID,−1.48 (3.48) mmHg
same,"Week 36 IOP, mean (SD)",[1]; 15 mg SC BID,14.0 (2.74) mmHg
same,"Week 48 IOP change from BL, mean (SD)",[1]; 15 mg SC BID,−0.94 (3.00) mmHg
same,"Week 48 IOP, mean (SD)",[1]; 15 mg SC BID,14.6 (2.73) mmHg
same,"Week 24 IOP change from BL, mean (SD)",[1]; 15 mg SC BID,−1.27 (3.31) mmHg
same,"Week 24 IOP, mean (SD)",[1]; 15 mg SC BID,14.2 (2.60) mmHg
same,mean reduction in IOP compared to placebo,[1]; 15 mg SC QD,0.70 mmHg
same,"Week 12 IOP change from BL, mean (SD)",[1]; 15 mg SC QD,−0.56 (2.83) mmHg
same,"Week 12 IOP, mean (SD)",[1]; 15 mg SC QD,15.3 (2.75) mmHg
same,"Week 36 IOP change from BL, mean (SD)",[1]; 15 mg SC QD,−0.94 (3.39) mmHg
same,"Week 36 IOP, mean (SD)",[1]; 15 mg SC QD,14.9 (3.58) mmHg
same,"Week 48 IOP change from BL, mean (SD)",[1]; 15 mg SC QD,−0.72 (2.80) mmHg
same,"Week 48 IOP, mean (SD)",[1]; 15 mg SC QD,15.2 (2.84) mmHg
same,"Week 24 IOP change from BL, mean (SD)",[1]; 15 mg SC QD,−0.56 (2.99) mmHg
same,"Week 24 IOP, mean (SD)",[1]; 15 mg SC QD,15.3 (2.90) mmHg
same,staining of Schlemm's canal for tyrosine phosphorylated Tie-2 (pY992-Tie-2),[2],enhanced
